How the values were obtained:
Solubility in n-hexane = details: in n-hexane at 25° C. and 0.1 MPa
Protocol: Hereinafter, “a solubility in n-hexane at 25° C. and 0.1 MPa” of a pigment is also simply referred to as “solubility”.
The solubility of each azomethine pigment in n-hexane, which is a non-polar solvent, was measured by the following method.
Each pigment was dissolved in n-hexane that had been heated to 50° C. to prepare a saturated solution, and then the saturated solution obtained was left to stand in an environment of 0.1 MPa at 25° C. for 1 hour. The precipitated pigment was filtered and the precipitation amount was measured, thereby calculating the solubility (% by mass) of each pigment in n-hexane at 25° C. and 0.1 MPa.

[1] = Absorption maximum wavelength, absorbance and absorption coefficient of colored solution; format: physicochemical; details: n-hexane colored solution; for Absorption coefficient (ε): calculated in accordance with the Lambert-Beer law
Protocol: Azomethine pigments (preparing the above exemplified compounds D-1, D-5, D-11, D-20, D-26, D-38, D-43, D-46, D-49, D-55, D-56, D-57 and D-65 shown in the following Table) and n-hexane as an organic solvent were mixed to prepare a 15% by mass azomethine pigment-n-hexane solution (colored composition), thereby manufacturing 13 kinds of colored solutions.
For the colored solution (colored composition), the absorption maximum wavelength (λmax) and the absorbance were measured with a visible light absorbance spectrometer (UV-1800PC, manufactured by Shimadzu Corporation) and the absorption coefficient (ε) was calculated in accordance with the Lambert-Beer law.

[2] = Measurement of relative permittivity; format: physicochemical; details: pigment itself, extrapolated from 5, 7.5 and 10% by mass solutions in n-hexane; 20° C., 40% RH, 1 kHz
Protocol: The relative permittivity is a value obtained by injecting the colored composition into a glass cell having a cell gap of 10 μm to which an indium tin oxide (ITO) transparent electrode is attached and measuring, at 20° C. and 40% RH, the electric capacitance of the cell with the colored composition thus-obtained using a TYPE 2353LCR METER (measuring frequency: 1 kHz) manufactured by NF Co., Ltd.
The azomethine pigments shown in the following Table 7 were prepared and solutions of 5% by mass, 7.5% by mass and 10% by mass of each pigment dissolved in n-hexane (all were colored solutions) were prepared. Each colored solution obtained was injected into a glass cell having a cell gap of 10 μm to which an indium tin oxide (ITO) transparent electrode was attached. For each of the glass cells, the electric capacitance was measured (measuring frequency: 1 kHz). Further, a cell for reference was prepared by injecting only n-hexane into a glass cell which was the same kind of glass cell as described above, and the electric capacitance of the cell for reference was also measured. The electric capacitance of the cell obtained was measured at 20° C. and 40% RH using a type 2353LCR meter (measuring frequency: 1 kHz) manufacture by NF Co., Ltd.
The relative permittivity of each colored solution was obtained by the above measurement, and the relative permittivity of each azomethine pigment itself was calculated from the above relative permittivity by extrapolation.

[3] = Measurement of dynamic viscosity; format: physicochemical; details: solution of 10% by mass of pigment in decane
Protocol: Note that, the dynamic viscosity is a value measured by adjusting a solution at 10% by mass of the pigment in decane to 20° C. using a viscometer (500 TYPE, manufactured by Toki Sangyo Co., Ltd.).
For the azomethine pigments shown in the following Table 7, a solution of 10% by mass of each pigment in decane was prepared and an R-type viscometer (500 TYPE, manufactured by Toki Sangyo Co., Ltd.) was used to measure the viscosity thereof at 20° C.

SMILES | Solubility (% by mass) (Solubility in n-hexane) | Absorption maximum wavelength [λmax] [1] [nm] | Absorption coefficient (ε) [1] | Relative permittivity [2] | Viscosity (20° C.) [3] [mPa · s]
CCCCCCOc1cc(N(CCCCCC)CCCCCC)ccc1N=C1C(C#N)=Nn2nc(C(C)(C)C)nc21 [Pigment D-56] | 3.5 % by mass | 550 | 7.2 × 10^4 | – | –
CCCCCCCCCCCCCCCCNC(=O)C1=CC(=Nc2ccc(N(CC)CC)cc2CC)c2ccccc2C1=O [Pigment D-38] | – | 630 | 2.9 × 10^4 | 4.4 | 1.5
CCCCCCCCN(CCCCCCCC)c1ccc(N=C2C(C(C)(C)C)=Nn3nc(-c4ccccc4)nc32)c(C)c1 [Pigment D-49] | 11 % by mass | 518 | 7.2 × 10^4 | 6.7 | 1.2
CCCCCCCCN1CCc2cc(/N=C3/C(C)=Nn4nc(C(C)CNC(=O)C(CCCCCC)Oc5ccc(C(C)(C)CC)cc5C(C)(C)CC)nc43)ccc21 [Pigment D-57] | 12.3 % by mass | 540 | 7.55 × 10^4 | 6.2 | 1.2
CCCCCCCCN1N=C(C(C)(C)C)C(=Nc2ccc(N(CC)CC)cc2C)C1=O [Pigment D-5] | 8.5 % by mass | 502 | 5.20 × 10^4 | – | –
CCCCCCN(CCCCCC)c1ccc(N=C2C=C(C(=O)Nc3ccccc3)C(=O)c3ccccc32)c(C)c1 [Pigment D-46] | – | 635 | 2.8 × 10^4 | – | –
CCCCCCCCCCCCCCCCCCNC(=O)C1=CC(=Nc2ccc(N(CC)CC)cc2OC)c2ccccc2C1=O [Pigment D-43] | – | 658 | 2.6 × 10^4 | 4.7 | 1.5
CCCCCCCCOc1cc(N(CCCC)CCCC)ccc1N=C1C(=O)ON=C1c1ccccc1 [Pigment D-20] | – | 480 | 4.80 × 10^4 | 8.8 | 1.2
CCCCCCCCN(CCCCCCCC)c1ccc(N=C2C(=O)N(c3ccccc3)N=C2C)c(C)c1 [Pigment D-1] | 9.5 % by mass | 500 | 6.05 × 10^4 | 8.6 | 1.3
CCCCCCN(CCCCCC)c1cc(C)c(N=C2C(C#N)=C(C(=O)OC3C(C(C)(C)C)CC(C)CC3C(C)(C)C)c3nc(C(C)(C)C)nn32)c(C)c1 [Pigment D-65] | ≥ 15.0 % by mass | 725 | 6.8 × 10^4 | – | –
CCCCCCCCNC(=O)C1=CC(=Nc2ccc(N(CCCCCCCC)CCCCCCCC)cc2)C=C(C)C1=O [Pigment D-26] | – | 626 | 2.8 × 10^4 | 6 | 1.4
CCCCCCN(CCCCCC)c1ccc(N=C2C(=O)N(c3ccccc3)N=C2C(C)(C)C)c(C)c1 [Pigment D-11] | 1.1 % by mass | 502 | 5.60 × 10^4 | – | –

The remaining lines, values ahead:

Solubility (% by mass) (Solubility in n-hexane) | Absorption maximum wavelength [λmax] [1] [nm] | Absorption coefficient (ε) [1] | Relative permittivity [2] | Viscosity (20° C.) [3] [mPa · s] | SMILES
≤ 0.05 % by mass | – | – | – | – | CCN(CC)c1ccc(/N=C2\C(C#N)=C(C(=O)OC)c3nc(-c4ccc(C(C)(C)C)cc4)nn32)c(C)c1 [Pigment D-106, reference compound]
0.05 or less % by mass | – | – | – | – | CCN(CC)c1ccc(N=C2C(=O)N(c3ccccc3)N=C2C)c(C)c1 [Pigment D-101, reference compound]
≤ 0.05 % by mass | – | – | – | – | CCN(CC)c1ccc(N=C2C=C(NC(C)=O)C(=O)C(Cl)=C2C)c(C)c1 [Pigment D-103, reference compound]
≤ 0.05 % by mass | – | – | – | – | CCCCN(CCCC)c1ccc(N=C2C=C(C(=O)NC)C(=O)c3ccccc32)cc1 [Pigment D-104, reference compound]
≤ 0.05 % by mass | – | – | – | – | CCN(CC)c1ccc(N=C2C(=O)ON=C2C(C)(C)C)cc1 [Pigment D-102, reference compound]

From US9482924B2, “Colored composition and image display structure” (FUJIFILM CORPORATION, priority 2011, dated 2016)
